In patent publication US20260001853A1, “ASCORBIC ACID DERIVATIVE OR SALT THEREOF, AND COSMETIC THEREOF” (SEIWA KASEI COMPANY, LIMITED, priority 2022, published 2026):

Tests used:
B16 melanoma 4A5 cells = experiment: Melanin production inhibitory effect (theophylline-induced melanin production); format: cell-based, mouse; details: melanin production inhibition rate, sample at a concentration of 10 mM or less, 3 days culture, theophylline 1 mmol/L, N=4
In short: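 Mouse B16 4A5 cells cultured 24 h in D-MEM/10% FBS, then 3 days with 1 mmol/L theophylline (final) plus sample at 10 mM or less. Melanin measured by alkali solubilization (1 mol/L NaOH, 60° C, 30 min, A405) against synthetic melanin standard, normalized to BCA protein. Inhibition rate relative to normal and control groups, scored as graded ranges; N=4.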

[1] = tested on: Normal human epidermal keratinocytes; experiment: Antioxidant test (ROS production after H2O2 treatment, DCFHDA probe); format: cell-based; details: sample at a concentration of 10 mM or less, 24 h culture, 0.2 mM H2O2 for 2 hours, ROS per unit protein, N=4
Protocol: Normal human epidermal keratinocytes were seeded in a 96-well plate using KG2 medium to a cell density of 2.0×10^4 cells/well. After 24 hours of pre-incubation, samples adjusted to a predetermined concentration with KG2 medium were added to each well. After 24 hours of culture and removal of the medium, the wells were washed with HBSS(−) and the ROS-reactive fluorescent probe DCFHDA was allowed to incorporate for 30 minutes. The wells were washed again with HBSS(—), treated with 0.2 mM H2O2, and cultured for 2 hours. The fluorescence intensity was measured, and the amount of ROS produced per unit protein was calculated by dividing the fluorescence intensity by the amount of protein quantified by the BCA method.
The antioxidant effect when the sample was measured at a concentration of 10 mM or less was expressed as follows. The measurement was performed with N=4. • <20%: ± • 20-40%: + • 40-70%: ++ • 70-100%: +++

[2] = tested on: Normal human dermal fibroblasts; experiment: Collagen production promoting effect (ELISA of supernatant); format: cell-based; details: amount of collagen produced, % with control group taken as 100%; sample at 10 mmol/L or less, 48 hours, N=3
In short: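 Fibroblasts in D-MEM with 5% FBS were pre-incubated 24 h, then exposed to samples for 48 h. Free collagen in supernatant quantified by ELISA (N=3), expressed as % of control (control = 100%) at ≤10 mmol/L, scored ± (<100%), + (100-120%), ++ (120%).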

[3] = tested on: Normal human dermal fibroblasts (NHDF); experiment: Hyaluronic acid production promoting effect (ELISA of supernatant); format: cell-based; details: amount of hyaluronic acid produced, % with control group taken as 100%; sample at 10 mmol/L or less, 48 hours, N=3
In short: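 NHDF pre-incubated 24 h, then exposed to samples at 10 mmol/L or less in serum-free D-MEM for 48 h. Supernatant hyaluronic acid quantified by ELISA, N=3, expressed as % of control (100%) and scored ± (<100%), + (100-120%), ++ (120-150%), +++ (150%).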

[4] = Stability test (residual rate by HPLC, odor, coloring); format: physicochemical; details: 1% aqueous solution; for Coloring / Odor: total score of 10 panelists
In short: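 A 1% aqueous solution of each test sample was brought to pH 6 with dilute potassium hydroxide aqueous solution, sealed in a 50 mL screw tube, and stored. Residual rate was calculated from HPLC peak area on a Shimadzu liquid chromatograph. Ten panelists scored odor and coloring on a 1–3 scale each, and the summed scores were classified.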

[5] = pH 6, stored at 50° C., four weeks later
[6] = pH 6, stored at 50° C., two weeks later

| SMILES | Melanin production inhibition effect (B16 melanoma 4A5 cells) | Antioxidant Effects [1] | Collagen production promoting effect [2] | Hyaluronic acid production promoting effect [3] | Residual rate ([4]; pH 6, 50° C., initial) | Coloring ([4]; pH 6, 50° C., initial) | Odor ([4]; pH 6, 50° C., initial) | Residual rate [4, 5] | Coloring [4, 5] | Odor [4, 5] | Residual rate [4, 6] | Coloring [4, 6] | Odor [4, 6] |
| --- | --- | --- | --- | --- | --- | --- | --- | --- | --- | --- | --- | --- | --- |
| O=C1O[C@H]([C@@H](O)CO)C(O)=C1OCC(O)CO (some centres unmarked) [2-O-glyceryl ascorbic acid, reference compound] | + (20-40%: +) | ± (<20%: ±) | + (100-120%: +) | + (100-120%: +) | – | – | – | – | – | – | – | – | – |
| O=C1O[C@H]([C@@H](O)CO)C(OCC(O)CO)=C1O (some centres unmarked) [3-O-glyceryl ascorbic acid, reference compound] | + (20-40%: +) | + (20-40%: +) | + (100-120%: +) | + (100-120%: +) | ⊚ (⊚: 90% or more) | ◯ (◯: Total score of 10 panelists is 25 or more) | ◯ (◯: Total score of 10 panelists is 20-24) | Δ (Δ: 60% or more, less than 80%) | Δ (Δ: Total score of 10 panelists is 16-24) | Δ (Δ: Total score of 10 panelists is 16-19) | ◯ (◯: 80% or more, less than 90%) | Δ (Δ: Total score of 10 panelists is 16-24) | Δ (Δ: Total score of 10 panelists is 16-19) |
| CC(C)(O)COC1=C(O)[C@@H]([C@@H](O)CO)OC1=O [Synthesis Example 1, 2-O-(2-hydroxyisobutyl) ascorbic acid] | ++ (40-60%: ++) | ++ (40-70%: ++) | ++ (120%: ++) | + (100-120%: +) | ⊚ (⊚: 90% or more) | ◯ (◯: Total score of 10 panelists is 25 or more) | ◯ (◯: Total score of 10 panelists is 20-24) | ⊚ (⊚: 90% or more) | ◯ (◯: Total score of 10 panelists is 25 or more) | ◯ (◯: Total score of 10 panelists is 20-24) | ⊚ (⊚: 90% or more) | ◯ (◯: Total score of 10 panelists is 25 or more) | ◯ (◯: Total score of 10 panelists is 20-24) |
| CC(C)(O)COC1=C(O)C(=O)O[C@@H]1[C@@H](O)CO [Synthesis Example 2, 3-O-(2-hydroxyisobutyl) ascorbic acid] | + (20-40%: +) | ++ (40-70%: ++) | + (100-120%: +) | + (100-120%: +) | ⊚ (⊚: 90% or more) | ◯ (◯: Total score of 10 panelists is 25 or more) | ◯ (◯: Total score of 10 panelists is 20-24) | ⊚ (⊚: 90% or more) | ◯ (◯: Total score of 10 panelists is 25 or more) | ◯ (◯: Total score of 10 panelists is 20-24) | ⊚ (⊚: 90% or more) | ◯ (◯: Total score of 10 panelists is 25 or more) | ◯ (◯: Total score of 10 panelists is 20-24) |
| CCOC1=C(OCC(C)(C)O)C(=O)O[C@@H]1[C@@H](O)CO [Synthesis Example 3, 2-O-(2-hydroxyisobutyl)-3-O-ethylascorbic acid] | +++ (60-100%: +++) | ++ (40-70%: ++) | ++ (120%: ++) | – | – | – | – | – | – | – | – | – | – |
| CCOC1=C(OCC(C)(C)O)[C@@H]([C@@H](O)CO)OC1=O [Synthesis Example 18, 2-O-ethyl-3-O-(2-hydroxyisobutyl) ascorbic acid] | +++ (60-100%: +++) | ++ (40-70%: ++) | ++ (120%: ++) | ++ (120-150%: ++) | – | – | – | – | – | – | – | – | – |
| CCCCCCCCCCCCCCC(O)COC1=C(OCC(C)(C)O)[C@@H]([C@@H](O)CO)OC1=O (some centres unmarked) [Synthesis Example 42, 3-O-(2-hydroxyisobutyl)-2-O-(2-hydroxyhexadecyl) ascorbic acid] | ++ (40-60%: ++) | – | + (100-120%: +) | +++ (150%: +++) | ⊚ (⊚: 90% or more) | ◯ (◯: Total score of 10 panelists is 25 or more) | ◯ (◯: Total score of 10 panelists is 20-24) | ⊚ (⊚: 90% or more) | ◯ (◯: Total score of 10 panelists is 25 or more) | ◯ (◯: Total score of 10 panelists is 20-24) | ⊚ (⊚: 90% or more) | ◯ (◯: Total score of 10 panelists is 25 or more) | ◯ (◯: Total score of 10 panelists is 20-24) |
| CC(C)(O)COC1=C(OCC(O)c2ccccc2)C(=O)OC1C(O)CO (centres unmarked) [Synthesis Example 43, 3-O-(2-hydroxyisobutyl)-2-O-(2-hydroxyethylbenzene) ascorbic acid] | ++ (40-60%: ++) | – | ++ (120%: ++) | ++ (120-150%: ++) | ⊚ (⊚: 90% or more) | ◯ (◯: Total score of 10 panelists is 25 or more) | ◯ (◯: Total score of 10 panelists is 20-24) | ⊚ (⊚: 90% or more) | ◯ (◯: Total score of 10 panelists is 25 or more) | ◯ (◯: Total score of 10 panelists is 20-24) | ⊚ (⊚: 90% or more) | ◯ (◯: Total score of 10 panelists is 25 or more) | ◯ (◯: Total score of 10 panelists is 20-24) |
